This passage reports inhibition results from article PMC8038316 (International Journal of Molecular Sciences, 2021).

The term inhibition denotes the relative decrease from the control value, in per cent.

The target of experiment [1] is T1, cytochrome bc1 complex (complex III; decylubiquinol:Cyt c reductase, EC 1.10.2.2) (Pyricularia grisea, UniProt Q85KP9).
T1 construct: gene cytb
Nature of the experiment: biochemical. The following applies: read-out: % inhibition at 50 μM.

The target of experiment [2] is T2, succinate dehydrogenase (SDH; succinate:quinone oxidoreductase, SQR, EC 1.3.5.1; complex II) (Pyricularia oryzae, UniProt A0ABQ8NN34+G4N2P5+G4NB04).
T2 construct: gene SDH2
Nature of the experiment: biochemical.

Turning to `CO/C=C(/C(=O)OC)c1ccccc1COc1cccc(NC(=O)c2ccccc2NC(C)=O)c1` [11b], in experiment [1], the inhibition at 50 µM turned out to be 58 ± 18%. Further, the inhibition at 400 µM in experiment [2] (read-out: % inhibition at 400 μM) is approximately 23%. On to `Cn1cc(C(=O)Nc2ccccc2-c2cc(F)c(F)c(F)c2)c(C(F)F)n1` [compound 6, fluxapyroxad], for which, in experiment [2] (read-out: % inhibition at 40 μM), the inhibition at 40 µM was more than 90%. Turning to `CO/C=C(/C(=O)OC)c1ccccc1Oc1cc(Oc2ccccc2C#N)ncn1` [compound 2, azoxystrobin], in experiment [1], the inhibition at 50 µM is 61 ± 10%.
